Test results: ChEMBL document CHEMBL3785045, “Design, syntheses, and anti-tuberculosis activities of conjugates of piperazino-1,3-benzothiazin-4-ones (pBTZs) with 2,7-dimethylimidazo [1,2-a]pyridine-3-carboxylic acids and 7-phenylacetyl cephalosporins” (2016)
Values after ≈ are worked out from the molar mass of the structure shown.

Columns and labels:
[1] = tested on: Mycobacterium tuberculosis; assay: Antimycobacterial activity against Mycobacterium tuberculosis H37Rv cultured in 7H12 medium after 4 days by microplate Alamar blue assay; format: functional; settings: 96 h
[2] = tested on: Mycobacterium tuberculosis; assay: Antimycobacterial activity against Mycobacterium tuberculosis H37Rv cultured in GAS medium after 4 days by microplate Alamar blue assay; format: functional; settings: 96 h
Bacillus subtilis [3] = assay: Antibacterial activity against Bacillus subtilis ATCC 6633; format: functional
Staphylococcus aureus [4] = assay: Antibacterial activity against Staphylococcus aureus SG511; format: functional
Micrococcus luteus [5] = assay: Antibacterial activity against Micrococcus luteus ATCC 10240; format: functional
Staphylococcus aureus [6] = assay: Antibacterial activity against Staphylococcus aureus SG511 assessed as zone of growth inhibition by agar diffusion assay; format: functional
Micrococcus luteus [7] = assay: Antibacterial activity against Micrococcus luteus ATCC 10240 assessed as zone of growth inhibition by agar diffusion assay; format: functional
Mycolicibacterium vaccae [8] = assay: Antibacterial activity against Mycobacterium vaccae IMET 10670 assessed as zone of growth inhibition by agar diffusion assay; format: functional
Mycolicibacterium vaccae [9] = assay: Antibacterial activity against Mycobacterium vaccae IMET 10670; format: functional
Bacillus subtilis [10] = assay: Antibacterial activity against Bacillus subtilis ATCC 6633 assessed as zone of growth inhibition by agar diffusion assay; format: functional
Micrococcus luteus [11] = assay: Antibacterial activity against Micrococcus luteus ATCC 10240 assessed as zone of growth inhibition at 1.66 ug/ml by agar diffusion assay; format: functional; settings: read-out: IZ
Mycolicibacterium vaccae [12] = assay: Antibacterial activity against Mycobacterium vaccae IMET 10670 assessed as zone of growth inhibition at 1.66 ug/ml by agar diffusion assay; format: functional; settings: read-out: IZ
Bacillus subtilis [13] = assay: microbe, parasite or virus in culture; settings: ATCC 6633, read-out: IZ
Description: Antibacterial activity against Bacillus subtilis ATCC 6633 assessed as zone of growth inhibition at 1.66 ug/ml by agar diffusion assay

Staphylococcus aureus [14] = assay: microbe, parasite or virus in culture; settings: SG511, read-out: IZ
Description: Antibacterial activity against Staphylococcus aureus SG511 assessed as zone of growth inhibition at 1.66 ug/ml by agar diffusion assay

| Compound | MIC [1] | MIC [2] | MIC (Bacillus subtilis [3]) | MIC (Staphylococcus aureus [4]) | further results |
| --- | --- | --- | --- | --- | --- |
| CC(C)(C)OC(=O)N1CCN(c2nc(=O)c3cc(C(F)(F)F)cc([N+](=O)[O-])c3s2)CC1 | 0.28 µM (≈ 0.129 µg/mL) | < 0.2 µM |  |  |  |
| O=C(Cc1ccccc1)N[C@@H]1C(=O)N2C(C(=O)O)=C(CN3CCN(c4cc5c(cc4F)c(=O)c(C(=O)O)cn5C4CC4)CC3)CS[C@H]12 |  |  | < 0.1 µM | 0.2 µM (≈ 0.132 µg/mL) | MIC (Micrococcus luteus [5]): 3.13 µM (≈ 2.07 µg/mL) |
| Cc1ccn2c(C(=O)NCCCC(=O)OCc3ccccc3)c(C)nc2c1 | 5.85 µM (≈ 2.14 µg/mL) | > 10 µM |  |  |  |
| CC(C)(C)OC(=O)C1=C(COC(=O)OC(Cl)C(Cl)(Cl)Cl)CS[C@@H]2[C@H](NC(=O)Cc3ccccc3)C(=O)N12 (stereo partly specified) | > 50 µM | 22.2 µM (≈ 13.7 µg/mL) |  |  |  |
| Cc1ccn2c(C(=O)N3CCN(c4nc(=O)c5cc(C(F)(F)F)cc([N+](=O)[O-])c5s4)CC3)c(C)nc2c1 | 2.1 µM (≈ 1.12 µg/mL) | 1.43 µM (≈ 0.761 µg/mL) |  |  |  |
| Cc1ccn2c(C(=O)NCCC(=O)OCc3ccccc3)c(C)nc2c1 | > 10 µM | > 10 µM |  |  |  |
| O=C(Cc1ccccc1)N[C@@H]1C(=O)N2C(C(=O)O)=C(COC(=O)N3CCN(c4nc(=O)c5cc(C(F)(F)F)cc([N+](=O)[O-])c5s4)CC3)CS[C@H]12 | 4.63 µM (≈ 3.4 µg/mL) | 12 µM (≈ 8.79 µg/mL) | 0.8 µM (≈ 0.588 µg/mL) | 12.5 µM (≈ 9.18 µg/mL) | inhibition zone (IZ) (Staphylococcus aureus [6]): 27 mm; inhibition zone (IZ) (Micrococcus luteus [7]): 24 mm; inhibition zone (IZ) (Mycolicibacterium vaccae [8]): 48 mm; MIC (Mycolicibacterium vaccae [9]): 0.2 µM (≈ 0.147 µg/mL); inhibition zone (IZ) (Bacillus subtilis [10]): 41 mm |
| O=C(Cc1ccccc1)N[C@@H]1C(=O)N2C(C(=O)O)=C(CN3CCN(c4nc(=O)c5cc(C(F)(F)F)cc([N+](=O)[O-])c5s4)CC3)CS[C@H]12 | 86.8 µM (≈ 60 µg/mL) | 48.9 µM (≈ 33.8 µg/mL) | < 0.003 µM | 0.4 µM (≈ 0.276 µg/mL) | inhibition zone (IZ) (Staphylococcus aureus [6]): 32 mm; inhibition zone (IZ) (Micrococcus luteus [7]): 48 mm; inhibition zone (IZ) (Mycolicibacterium vaccae [8]): 33 mm; MIC (Micrococcus luteus [5]): 1.56 µM (≈ 1.08 µg/mL); MIC (Mycolicibacterium vaccae [9]): 12.5 µM (≈ 8.63 µg/mL); inhibition zone (IZ) (Bacillus subtilis [10]): 41 mm |
| COc1ccc(COC(=O)C2=C(CN3CCN(c4nc(=O)c5cc(C(F)(F)F)cc([N+](=O)[O-])c5s4)CC3)CS[C@@H]3[C@H](NC(=O)Cc4ccccc4)C(=O)N23)cc1 | > 100 µM | > 100 µM | 0.1 µM (≈ 0.0811 µg/mL) | 1.56 µM (≈ 1.26 µg/mL) | inhibition zone (IZ) (Staphylococcus aureus [6]): 37 mm; inhibition zone (IZ) (Micrococcus luteus [7]): 24 mm; inhibition zone (IZ) (Mycolicibacterium vaccae [8]): 24 mm; inhibition zone (IZ) (Bacillus subtilis [10]): 36 mm |
| Cc1ccn2c(C(=O)NCCCC(=O)N3CCN(c4nc(=O)c5cc(C(F)(F)F)cc([N+](=O)[O-])c5s4)CC3)c(C)nc2c1 | > 10 µM | > 10 µM |  |  |  |
| Cc1ccn2c(C(=O)NCCC(=O)N3CCN(c4nc(=O)c5cc(C(F)(F)F)cc([N+](=O)[O-])c5s4)CC3)c(C)nc2c1 | > 10 µM | > 10 µM |  |  |  |
| CC(C)(C)OC(=O)C1=C(COC(=O)N2CCN(c3nc(=O)c4cc(C(F)(F)F)cc([N+](=O)[O-])c4s3)CC2)CS[C@@H]2[C@H](NC(=O)Cc3ccccc3)C(=O)N12 | 1.49 µM (≈ 1.18 µg/mL) | 63.5 µM (≈ 50.2 µg/mL) |  |  |  |
| Cc1ccn2c(C(=O)NCc3ccc(C(=O)OCc4ccccc4)cc3)c(C)nc2c1 | 0.21 µM (≈ 0.0868 µg/mL) | 4.1 µM (≈ 1.7 µg/mL) |  |  |  |
| Cc1ccn2c(C(=O)NCc3ccc(C(=O)N4CCN(c5nc(=O)c6cc(C(F)(F)F)cc([N+](=O)[O-])c6s5)CC4)cc3)c(C)nc2c1 | > 10 µM | > 10 µM |  |  |  |
| CC(C)(C)OC(=O)C1=C(CN2CCN(c3nc(=O)c4cc(C(F)(F)F)cc([N+](=O)[O-])c4s3)CC2)CS[C@@H]2[C@H](NC(=O)Cc3ccccc3)C(=O)N12 | 2.03 µM (≈ 1.52 µg/mL) | 1.51 µM (≈ 1.13 µg/mL) | 1.56 µM (≈ 1.16 µg/mL) | 12.5 µM (≈ 9.33 µg/mL) | inhibition zone (IZ) (Staphylococcus aureus [6]): 23 mm; inhibition zone (IZ) (Micrococcus luteus [7]): 13 mm; inhibition zone (IZ) (Mycolicibacterium vaccae [8]): 29 mm; MIC (Mycolicibacterium vaccae [9]): 0.8 µM (≈ 0.597 µg/mL); inhibition zone (IZ) (Bacillus subtilis [10]): 27 mm |
| C[C@H]1COC2(CCN(c3nc(=O)c4cc(C(F)(F)F)cc([N+](=O)[O-])c4s3)CC2)O1 [BTZ-043] | < 0.004 µM | < 0.004 µM |  | > 200 µM | MIC (Micrococcus luteus [5]): > 200 µM; MIC (Mycolicibacterium vaccae [9]): 0.03 µM (≈ 0.0129 µg/mL) |
| O=C(O)c1cn(C2CC2)c2cc(N3CCNCC3)c(F)cc2c1=O [CIPROFLOXACIN] |  |  | 0.15 µM (≈ 0.0497 µg/mL) |  | zone of inhibition at 1.66 µg/mL (Micrococcus luteus [11]): 0 mm; zone of inhibition at 1.66 µg/mL (Mycolicibacterium vaccae [12]): 17 mm; zone of inhibition at 1.66 µg/mL (Bacillus subtilis [13]): 20 mm; zone of inhibition at 1.66 µg/mL (Staphylococcus aureus [14]): 20 mm |
| CO[C@H]1/C=C/O[C@@]2(C)Oc3c(C)c(O)c4c(O)c(c(/C=N/N5CCN(C)CC5)c(O)c4c3C2=O)NC(=O)/C(C)=C\C=C\[C@H](C)[C@H](O)[C@@H](C)[C@@H](O)[C@@H](C)[C@H](OC(C)=O)[C@@H]1C [RIFAMPIN] | 0.05 µM (≈ 0.0411 µg/mL) | 0.04 µM (≈ 0.0329 µg/mL) |  |  |  |
